Test results from ChEMBL document CHEMBL4706632, “Development of Potential Antitumor Agents from the Scaffolds of Plant-Derived Terpenoid Lactones” (J Med Chem, 2020).
Each block holds one compound with its values, some of them ahead of it.

What was measured:
Type in all cases: functional, cell-based
LNCaP = assay: Cytotoxicity against human LNCAP cells incubated for 48 hrs clonogenic survival assay; details: 48 h
HeLa = assay: Cytotoxicity against human HeLa cells incubated for 48 hrs by SRB assay
HepG2 [1] = assay: Cytotoxicity against human HepG2 cells incubated for 48 hrs by SRB assay; details: HepG2, 48 h
IMR-32 = assay: Cytotoxicity against human IMR-32 cells incubated for 48 hrs by SRB assay; details: IMR-32, 48 h
MCF7 = assay: Antiproliferative activity against human MCF7 cells by tetrazolium-based semiautomated colorimetric assay
HCT-116 = assay: Cytotoxicity against human HCT-116 cells by MTT assay
BGC-823 = assay: Cytotoxicity against human BGC-823 cells by MTT assay
HepG2 [2] = assay: Cytotoxicity against human HepG2 cells by MTT assay
HL-60 = assay: Cytotoxicity against human HL-60 cells incubated for 72 hrs by MTT assay; details: HL-60, 72 h
CCRF-CEM = assay: Cytotoxicity against human CEM cells incubated for 72 hrs by MTT assay
Jurkat = assay: Cytotoxicity against human Jurkat cells incubated for 72 hrs by MTT assay
L1210 = assay: Cytotoxicity against mouse L1210 cells
XF498 = assay: Cytotoxicity against human XF498 cells by SRB staining assay
A549 = assay: Cytotoxicity against human A549 cells by SRB staining assay
SK-OV-3 = assay: Cytotoxicity against human SK-OV-3 cells by SRB staining assay
HCT-15 = assay: Cytotoxicity against human HCT-15 cells by SRB staining assay
SK-MEL-2 = assay: Cytotoxicity against human SK-MEL-2 cells by SRB staining assay
HT-29 [3] = assay: Cytotoxicity against human HT-29 cells incubated for 24 hrs by MTS method; details: HT-29, 24 h
Bel-7402 = assay: Cytotoxicity against human Bel-7402 cells incubated for 24 hrs by MTS method; details: Bel-7402, 24 h
[4] = Cytotoxicity against human MDA-Panc-28 cells incubated for 24 hrs by MTS method; details: MDA-Panc-28, 24 h
P388 = assay: Antiproliferative activity against mouse P388 cells
HT-29 [5] = assay: Cytotoxicity against human HT-29 cells incubated for 48 hrs by MTT assay; details: HT-29, 48 h
MDA-MB-231 = assay: Cytotoxicity against human MDA-MB-231 cells incubated for 48 hrs by MTT assay; details: MDA-MB-231, 48 h
A2058 = assay: Cytotoxicity against human A2058 cells incubated for 48 hrs by MTT assay; details: A2058, 48 h

Compound: C/C=C(/C)C(=O)O[C@H]1C(C)=C2[C@H]([C@@H]1OC(=O)CCCCCCC)[C@@](C)(OC(C)=O)C[C@H](OC(=O)CCCCCCCCCCCNC(=O)[C@@H](N)CC(C)C)[C@@]1(O)[C@H]2OC(=O)[C@@]1(C)O
IC50 (LNCaP): 14 nM

Compound: C=C1[C@@H]2CC[C@@]3(C)[C@H](c4ccoc4)OC(=O)C[C@]13O[C@H]1C[C@H](OC(C)=O)C(C)(C)[C@H](CC(=O)OC)[C@]12C
IC50 (HeLa): 61000 nM | IC50 (HepG2 [1]): > 100000 nM | IC50 (IMR-32): 22 nM

Compound: C[C@H]1[C@@H](CCC(=O)NCC[C@H]2O[C@@H]3O[C@]4(C)CC[C@H]5[C@H](C)CC[C@@H]([C@H]2C)[C@@]35OO4)O[C@@H]2O[C@@]3(C)CC[C@H]4[C@H](C)CC[C@@H]1[C@@]24OO3
IC50 (MCF7): 8 nM

Compound: CC(C)[C@]1(O)[C@H](O)[C@@H]2O[C@]23[C@]2(O[C@H]2C[C@H]2C4=C(CC[C@@]23C)C(=O)OC4)[C@@H]1O
IC50 (HCT-116): > 10000 nM | IC50 (BGC-823): > 10000 nM | IC50 (HepG2 [2]): > 10000 nM

Compound: CC(O)CC(=O)O[C@@]1(C)CO[C@@]2(C1)OC(=O)[C@H]([C@@H]1CC[C@]34C[C@]13C=C[C@@H]1[C@@]3(C)CC=C5C[C@@H](Cc6ccccc6)OC[C@]5(C)[C@@H]3C[C@@H](O)[C@]14C)[C@H]2O (stereo partly specified)
IC50 (HL-60): 5600 nM | IC50 (CCRF-CEM): 3100 nM | IC50 (Jurkat): 1800 nM

Compound: C=C1[C@@H](O)[C@@]2(O)OC[C@@]34[C@H]1[C@@H](OC(=O)/C=C(\C)CCCCC)C(=O)O[C@@H]3C[C@H]1C(C)=CC(=O)[C@@H](O)[C@]1(C)[C@@H]24
IC50 (L1210): 90 nM

Compound: CC(=O)O[C@@H]1C[C@H](O)[C@@]23COC(O)[C@]1(C)[C@@H]2C[C@@H](O)[C@@]1(C)[C@@H]2C(=O)C[C@@H](c4ccoc4)[C@]2(C)[C@@H](O)C(=O)[C@@H]13 (stereo partly specified)
IC50 (XF498): 3800 nM | IC50 (A549): 1700 nM | IC50 (SK-OV-3): 26000 nM | IC50 (HCT-15): 3000 nM | IC50 (SK-MEL-2): 710 nM

Compound: C=C1[C@@H](O)[C@@]2(O)OC[C@@]34[C@H]1[C@@H](OC(=O)/C=C/CCCCCCCC)C(=O)O[C@@H]3C[C@H]1C(C)=CC(=O)[C@@H](O)[C@]1(C)[C@@H]24
IC50 (L1210): 90 nM

Compound: CO[C@@]12OC(=O)C(CO)=C1[C@H]1O[C@]13CC[C@@H]1C(C)(C)CCC[C@@]1(C)[C@@H]3[C@H]2O
IC50 (HT-29 [3]): > 50000 nM | IC50 (Bel-7402): > 50000 nM | IC50 [4]: > 50000 nM

Compound: C=C1[C@@H]2CC[C@@]3(C)[C@H](c4ccoc4)OC(=O)C[C@]13O[C@H]1C[C@H](OC(=O)CN3CCN(C(=O)c4ccccc4)CC3)C(C)(C)[C@H](CC(=O)OC)[C@]12C
IC50 (HeLa): 14000 nM | IC50 (HepG2 [1]): 10 nM | IC50 (IMR-32): > 100000 nM

IC50 (P388): 3.8 nM
Compound: CC(=O)O[C@@H]1C[C@H](O)[C@@]23COC(O)[C@]1(C)[C@@H]2C[C@@H](O)[C@]1(C)[C@@H]3C(=O)C(O)[C@@]2(C)[C@H](c3ccoc3)C[C@H]3O[C@@]312 (stereo partly specified)
IC50 (XF498): 38 nM | IC50 (A549): 75 nM | IC50 (SK-OV-3): 470 nM | IC50 (HCT-15): 150 nM | IC50 (SK-MEL-2): 19 nM

Compound: C=C1CC[C@@H]2[C@](C)(COC(=O)CN(C)c3ccc([N+](=O)[O-])c4nonc34)[C@H](O)CC[C@@]2(C)[C@@H]1C/C=C1/C(=O)OC[C@H]1OC(C)=O
IC50 (HT-29 [5]): 12000 nM | IC50 (MDA-MB-231): 9800 nM | IC50 (A2058): 4500 nM

Compound: CC(=O)O[C@@]1(C)COC2(C1)OC(=O)[C@H]([C@@H]1CC[C@]34C[C@]13C=C[C@@H]1[C@@]3(C)CC=C5C[C@@H](Cc6ccccc6)OC[C@]5(C)[C@@H]3C[C@@H](O)[C@]14C)[C@H]2O (stereo partly specified)
IC50 (HL-60): 30000 nM | IC50 (CCRF-CEM): 24000 nM | IC50 (Jurkat): 2700 nM
